Measurements taken from US11766407B2, “Polymerized whey protein encapsulated antioxidant compound and a process for preparation of same” (FoodScience Corporation, priority 2020, dated 2023).

Experiments:
in vivo = conditions: male, ICR, mouse, po
Method: ICR mice, male, SPF, 3 weeks, weighing from 18 to 22 g were provided by Beijing HFK Bioscience Co., Ltd (Beijing, China).
All mice were housed in plastic lab animal cages in a ventilated room. The room was maintained at 20±2° C. and 60±10% relative humidity with a 12 h light/dark cycle. Water and commercial laboratory complete food for mice were available ad libitum. They were acclimated to this environment for 7 days before treatment. All animal experiments were approved by the Animal Welfare and Research Ethics Committee at Jilin University (Approval ID: SY201905018).
Blood collection. Before blood collection, 30 μL heparin solution was added to 1.5 mL centrifugal tubes and vortexed. The blood samples (about 0.5 mL) was collected by removing one eye of the mice. The blood was centrifuged at 6000 rpm at room temperature for 2 min. The upper plasma was transferred to a new centrifugal tube.
Pharmacokinetic parameters were calculated using a mouse model.

[1] = Physicochemical characterization of PWPC-GSH (particle size, zeta potential, rheology, TEM); conditions: GSH alone

AUC (in vivo): 19.2 µg·h/mL
Cmax (in vivo): 7.37 µg/mL
Tmax (in vivo): 2 h
particle size [1]: 287.83±6.18 nm
SMILES: N[C@@H](CCC(=O)N[C@@H](CS)C(=O)NCC(=O)O)C(=O)O [GSH, Glutathione]
